How the values were obtained:
[1] = tested on: human adipocytes; assay: Glycerin release (lipolysis) from human adipocytes treated with EVs; type: cell-based; conditions: for Released glycerin level from adipocytes treated with Panc-1 EVs in presence of inhibitor: 10 μM H89, 0.5 μM orlistat, Cay10499
Experimental: (§1) Data are in terms of mean±SD (n=3). **P=0.0025. […] Data are in terms of mean±SD (n=3). […] P=0.65.
FIG. 15 This figure is a graph of glycerin release from adipocytes treated for 24 hours with EVs (1.5 μg) derived from Panc-1 cells, in the presence or absence of an inhibitor of endocytosis. The dosage of the inhibitor is as described in FIG. 14. Data are in terms of mean±SD (n=3). P=0.40 (CPZ), *P=0.027 (Nocodazole), *P=0.012 (CytD). **P=0.0065 (Nystatin), and **P=0.0074 (4° C.); comparison with cells treated with EV alone (control). Statistical analyses were carried out using Welch's t-test. […]
EVs having a mode diameter of 100 to 150 nm were isolated from various sources, except for EVs of about 240 nm derived from Capan-2 cells. […] The expression of exosome markers such as TSG101 and CD63 in EVs was confirmed, whereby it was confirmed that EV isolation was appropriate (see FIG. 1). To investigate the effect of EV, mature human adipocytes were induced from human adipose-derived mesenchymal stem cells (hAD-MSCs) and subjected to an EV treatment (see FIGS. 2 to 4). […] Miapapaca-2 cells, and BxPC-3 cells, but it was not observed in adipocytes treated with EVs derived from Capan-2 cells (see FIG. 5).

[2] = tested on: adipocytes; assay: Isoproterenol-induced glycerin release from adipocytes; type: cell-based, human
Text: as §1
Further, the dependence of the lipolysis induced by EV, under newly synthesized cAMP, was investigated. In general, a β-stimulant such as isoproterenol activates G proteins, and it subsequently activates adenylyl cyclase, which leads to the synthesis of cAMP.

[3] = tested on: human adipocytes; assay: EV internalization into human adipocytes by β-actin-HiBiT luciferase activity; type: cell-based; conditions: Panc-1 EVs, 1 hour; 20 IM CPZ, 10 μM nocodazole, 20 μM CytD, 2.5 μg/mL nystatin
Experimental: The luciferase level is a luciferase level 5 of adipocytes treated for 1 hour with EV ([…]) in the presence or absence of a treatment with an endocytosis inhibitor (20 IM chlorpromazine (CPZ), 10 μM nocodazole, 20 μM cytochalasin D (CytD), or 2.5 μg/mL nystatin, or incubation at 4° C.), which is a value indicated in terms of comparison with a negative control (PBS). Data are in terms of mean±SD (n=3). P=0.74 (CPZ), *P=0.029 (nocodazole), *P=0.032 (CytD), **P=0.0078 (nystatin), and **P=0.0074 (4° C.); comparison with cells treated with EV alone (control).
Wild type: EVs derived from Panc-1 cells (not expressing HiBiT) as a negative control, EV-H and EV-L: EVs derived from Panc-1-ACTB-HiBiT cells cultured with high glucose and low glucose, respectively. […] P=0.61 (EV-H versus EV-L). […] P=0.72. […] The relative luciferase level of adipocytes treated for 1 hour with 10^9 particles of EVs (EV-H and EV-L) derived from Panc-1-ACTB-HiBiT cells was compared with the negative control (PBS). Data are in terms of mean±SD (n=3). **P=0.0011.
Wild type; Panc-1 cells (not expressing HiBiT) as a negative control, EV and EV-NP40; EVs derived from Panc-1-ACTB-HiBiT cells. 10^9 particles per sample were used. Data are in terms of mean±SD (n=3). **P=0.0017 (EV), **P<[…] (EV-NP40), and **P=0.0026 (EV versus EV-NP40). […] The luciferase level of the lysate of adipocytes treated for 1 hour with EVs (10^9 particles) derived from Panc-1-ACTB-HiBiT cells or EV-NP40 was compared with the negative control (PBS), and the results are shown. Data are in terms of mean±SD (n=3). *P=0.045. Statistical analyses were carried out using Welch's t-test.
β-actin is contained as a pan-EV marker in most EVs derived from human serum and human cell lines. To monitor the EV endocytosis level, a reporter cell (Panc-1-ACTB-HiBiT cell) was established by knocking in the HiBiT peptide sequence at the 3′ terminal of the ACTB locus of Panc-1 cell (see FIGS. 11 and 12). A high luciferase activity was detected in a lysate of cells and in EVs derived from these cells, and thus it was confirmed that the β-actin-HiBiT protein is present in the EVs (see FIGS. 13(A) and 13(B).
The luciferase level of the adipocyte lysate was upregualted 1 hour after the addition of EV and was similar to a level in a case where chlorpromazine, a clathrin-mediated endocytosis inhibitor, was used. […] (see FIG. 14).

[4] = 30 μM SQ22536, 24-hour treatment

| Structure (SMILES) | Released glycerin level from adipocytes treated with Panc-1 EVs in presence of inhibitor [1] | Luciferase level of adipocyte lysate (EV internalization) with endocytosis inhibitor, vs EV alone [3] | other results |
| --- | --- | --- | --- |
| COc1nn(-c2ccc(NC(=O)OCc3ccccc3)c(C)c2)c(=O)o1 [Cay10499] | significantly reduced | – | – |
| O=S(=O)(NCCNC/C=C/c1ccc(Br)cc1)c1cccc2cnccc12 [H89] | significantly reduced | – | – |
| CCCCCCCCCCC[C@@H](C[C@@H]1OC(=O)[C@H]1CCCCCC)OC(=O)[C@H](CC(C)C)NC=O [Orlistat] | significantly reduced | – | – |
| Nc1ncnc2c1ncn2C1CCCO1 (stereo not shown) [SQ22536] | – | – | Inhibition of isoproterenol-induced lipolysis [2, 4]: significantly inhibited; Inhibition of lipolysis induced by EVs derived from Panc-1 [1, 4]: did not inhibit |
| CN(C)CCCN1c2ccccc2Sc2ccc(Cl)cc21 [chlorpromazine] | – | similar | – |
| C=C1[C@@H](C)[C@H]2[C@H](Cc3ccccc3)NC(=O)[C@]23[C@H](OC(C)=O)/C=C/[C@@](C)(O)C(=O)[C@@H](C)C/C=C/[C@H]3[C@@H]1O [cytochalasin D] | – | significantly lower | – |
| CC(C)NCC(O)c1ccc(O)c(O)c1 (stereo not shown) [isoproterenol] | – | – | Lipolysis in adipocytes (glycerin release) ([2]; 10 μM isoproterenol): induces lipolysis |
| COC(=O)Nc1nc2ccc(C(=O)c3cccs3)cc2[nH]1 [nocodazole] | – | significantly lower | – |
| C[C@@H]1[C@H](O)[C@@H](C)/C=C/C=C/CC/C=C/C=C/C=C/C=C/C(O[C@H]2O[C@H](C)[C@@H](O)[C@H](N)[C@@H]2O)CC2O[C@](O)(CC(O)C(O)CCC(O)CC(O)CC(O)CC(=O)O[C@H]1C)CC(O)C2C(=O)O (stereo partly shown) [nystatin] | – | significantly lower | – |
